# Laboratory results as given in PubChem BioAssay (NCI).
#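 Step 1: Grow cells in 96-well plates. Step 2: Expose to compound for 48 hours at 5 concentrations. Step 3: Interpolate endpoints linearly; if unreached, use highest concentration. TGI marks complete inhibition of growth.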
# Columns and labels:
# Assay in all cases: NCI anticancer screen, dose series, 48 h
# SN12C renal = system: SN12C renal
# UO-31 renal = system: UO-31 renal
# SK-OV-3 ovarian = system: SK-OV-3 ovarian
# HOP-62 NSCLC = system: HOP-62 NSCLC
# SNB-75 CNS = system: SNB-75 CNS
# KM12 colon = system: KM12 colon
# UACC-257 melanoma = system: UACC-257 melanoma
# COLO 205 colon = system: COLO 205 colon
# OVCAR-3 ovarian = system: OVCAR-3 ovarian
# MDA-N = system: MDA-N
# A498 renal = system: A498 renal
# NCI-H23 lung = system: NCI-H23 lung
# EKVX NSCLC = system: EKVX NSCLC
# OVCAR-8 ovarian = system: OVCAR-8 ovarian
# HOP-92 NSCLC = system: HOP-92 NSCLC
# NCI/ADR-RES ovarian = system: NCI/ADR-RES ovarian
# ACHN renal = system: ACHN renal
# NCI-H522 lung = system: NCI-H522 lung
# A549 NSCLC = system: A549 NSCLC
# SNB-19 CNS = system: SNB-19 CNS
# MALME-3M melanoma = system: MALME-3M melanoma
# HCC-2998 colon = system: HCC-2998 colon
# SK-MEL-28 melanoma = system: SK-MEL-28 melanoma
# 786-0 renal = system: 786-0 renal
# CCRF-CEM leukemia = system: CCRF-CEM leukemia
# CAKI-1 renal = system: CAKI-1 renal
# HS 578T breast = system: HS 578T breast
# HCT-116 colon = system: HCT-116 colon
# BT-549 breast = system: BT-549 breast
# RXF 393 renal = system: RXF 393 renal
# HCT-15 colon = system: HCT-15 colon
# SK-MEL-2 melanoma = system: SK-MEL-2 melanoma
# K-562 leukemia = system: K-562 leukemia
# T-47D breast = system: T-47D breast
# RPMI-8226 leukemia = system: RPMI-8226 leukemia
# SF-295 CNS = system: SF-295 CNS
# HT29 colon = system: HT29 colon
# M14 melanoma = system: M14 melanoma
# TK-10 renal = system: TK-10 renal
# OVCAR-5 ovarian = system: OVCAR-5 ovarian
# NCI-H226 lung = system: NCI-H226 lung
# NCI-H460 lung = system: NCI-H460 lung
# PC-3 prostate = system: PC-3 prostate
# DU-145 prostate = system: DU-145 prostate
# SF-539 CNS = system: SF-539 CNS
# LOX IMVI melanoma = system: LOX IMVI melanoma
# IGROV1 ovarian = system: IGROV1 ovarian
# U251 CNS = system: U251 CNS
# SF-268 CNS = system: SF-268 CNS
# UACC-62 melanoma = system: UACC-62 melanoma
# MDA-MB-231 breast = system: MDA-MB-231 breast
# MDA-MB-435 = system: MDA-MB-435
# SW-620 colon = system: SW-620 colon
# SK-MEL-5 melanoma = system: SK-MEL-5 melanoma
# HL-60(TB) leukemia = system: HL-60(TB) leukemia
# OVCAR-4 ovarian = system: OVCAR-4 ovarian
# SR leukemia = system: SR leukemia
# MOLT-4 leukemia = system: MOLT-4 leukemia
smiles,measurement,setting,value
COC1C(O)C(C)OC(OC2CC3CCC4C(CCC5(C)C(C6=CC(=O)OC6)CCC45O)C3(O)C(OC(C)=O)C2)C1O (centres undefined),TGI,SN12C renal,2.6 µM
same,TGI,UO-31 renal,4.51 µM
same,TGI,SK-OV-3 ovarian,6.82 µM
same,TGI,HOP-62 NSCLC,2.59 µM
same,TGI,SNB-75 CNS,> 31.2 µM
same,TGI,KM12 colon,> 48.8 µM
same,TGI,UACC-257 melanoma,16.5 µM
same,TGI,COLO 205 colon,8.48 µM
same,TGI,OVCAR-3 ovarian,3.38 µM
same,TGI,MDA-N,5.05 µM
same,TGI,A498 renal,3.5 µM
same,TGI,NCI-H23 lung,2.61 µM
same,TGI,EKVX NSCLC,3.14 µM
same,TGI,OVCAR-8 ovarian,5.35 µM
same,TGI,HOP-92 NSCLC,11.6 µM
same,TGI,NCI/ADR-RES ovarian,6.32 µM
same,TGI,ACHN renal,2.13 µM
same,TGI,NCI-H522 lung,3.21 µM
same,TGI,A549 NSCLC,1.41 µM
same,TGI,SNB-19 CNS,14.9 µM
same,TGI,MALME-3M melanoma,3.74 µM
same,TGI,HCC-2998 colon,13 µM
same,TGI,SK-MEL-28 melanoma,> 37.6 µM
same,TGI,786-0 renal,> 100 µM
same,TGI,CCRF-CEM leukemia,> 100 µM
same,TGI,CAKI-1 renal,3.43 µM
same,TGI,HS 578T breast,> 100 µM
same,TGI,HCT-116 colon,4.75 µM
same,TGI,BT-549 breast,2.02 µM
same,TGI,RXF 393 renal,1.32 µM
same,TGI,HCT-15 colon,5.41 µM
same,TGI,SK-MEL-2 melanoma,10.1 µM
same,TGI,K-562 leukemia,> 100 µM
same,TGI,T-47D breast,12.7 µM
same,TGI,RPMI-8226 leukemia,7.55 µM
same,TGI,SF-295 CNS,8.57 µM
same,TGI,HT29 colon,12.7 µM
same,TGI,M14 melanoma,5.5 µM
same,TGI,TK-10 renal,6.8 µM
same,TGI,OVCAR-5 ovarian,5.87 µM
same,TGI,NCI-H226 lung,10.3 µM
same,TGI,NCI-H460 lung,2.74 µM
same,TGI,PC-3 prostate,8.77 µM
same,TGI,DU-145 prostate,1.65 µM
same,TGI,SF-539 CNS,1.95 µM
same,TGI,LOX IMVI melanoma,4.7 µM
same,TGI,IGROV1 ovarian,15.7 µM
same,TGI,U251 CNS,> 24.2 µM
same,TGI,SF-268 CNS,2.54 µM
same,TGI,UACC-62 melanoma,5.92 µM
same,TGI,MDA-MB-231 breast,97.3 µM
same,TGI,MDA-MB-435,10.5 µM
same,TGI,SW-620 colon,> 36.7 µM
same,TGI,SK-MEL-5 melanoma,2.03 µM
same,TGI,HL-60(TB) leukemia,4.23 µM
same,TGI,OVCAR-4 ovarian,17.1 µM
Cc1cc(=O)[nH]c(/N=C(\N)Nc2ccc(Cl)cc2)n1,TGI,SN12C renal,> 100 µM
same,TGI,SR leukemia,> 100 µM
same,TGI,UO-31 renal,> 100 µM
same,TGI,HOP-62 NSCLC,> 100 µM
same,TGI,KM12 colon,> 100 µM
same,TGI,UACC-257 melanoma,> 100 µM
same,TGI,OVCAR-3 ovarian,> 100 µM
same,TGI,MDA-N,> 100 µM
same,TGI,A498 renal,> 100 µM
same,TGI,NCI-H23 lung,> 100 µM
same,TGI,EKVX NSCLC,> 100 µM
same,TGI,OVCAR-8 ovarian,> 100 µM
same,TGI,HOP-92 NSCLC,> 100 µM
same,TGI,NCI/ADR-RES ovarian,> 100 µM
same,TGI,ACHN renal,> 100 µM
same,TGI,NCI-H522 lung,> 100 µM
same,TGI,A549 NSCLC,> 100 µM
same,TGI,SNB-19 CNS,> 100 µM
same,TGI,MALME-3M melanoma,> 100 µM
same,TGI,HCC-2998 colon,> 100 µM
same,TGI,SK-MEL-28 melanoma,> 100 µM
same,TGI,786-0 renal,> 100 µM
same,TGI,MOLT-4 leukemia,> 100 µM
same,TGI,CCRF-CEM leukemia,> 100 µM
same,TGI,CAKI-1 renal,> 100 µM
same,TGI,HS 578T breast,> 100 µM
same,TGI,HCT-116 colon,> 100 µM
same,TGI,BT-549 breast,> 100 µM
same,TGI,RXF 393 renal,> 100 µM
same,TGI,HCT-15 colon,> 100 µM
same,TGI,SK-MEL-2 melanoma,> 100 µM
same,TGI,K-562 leukemia,> 100 µM
same,TGI,T-47D breast,> 100 µM
same,TGI,RPMI-8226 leukemia,> 100 µM
same,TGI,SF-295 CNS,> 100 µM
same,TGI,HT29 colon,> 100 µM
same,TGI,M14 melanoma,> 100 µM
same,TGI,TK-10 renal,> 100 µM
same,TGI,OVCAR-5 ovarian,> 100 µM
same,TGI,NCI-H226 lung,> 100 µM
same,TGI,NCI-H460 lung,> 100 µM
same,TGI,PC-3 prostate,> 100 µM
same,TGI,DU-145 prostate,> 100 µM
same,TGI,LOX IMVI melanoma,> 100 µM
same,TGI,IGROV1 ovarian,> 100 µM
same,TGI,U251 CNS,> 100 µM
same,TGI,SF-268 CNS,> 100 µM
same,TGI,UACC-62 melanoma,> 100 µM
same,TGI,MDA-MB-231 breast,> 100 µM
same,TGI,MDA-MB-435,> 100 µM
same,TGI,SW-620 colon,> 100 µM
same,TGI,SK-MEL-5 melanoma,> 100 µM
same,TGI,HL-60(TB) leukemia,> 100 µM
